Where two headings read alike, the source gives them in different places.
Target: T1, LmxCLK1 (Leishmania mexicana, UniProt E9AMP2)
T1 sequence (E9AMP2 1-422): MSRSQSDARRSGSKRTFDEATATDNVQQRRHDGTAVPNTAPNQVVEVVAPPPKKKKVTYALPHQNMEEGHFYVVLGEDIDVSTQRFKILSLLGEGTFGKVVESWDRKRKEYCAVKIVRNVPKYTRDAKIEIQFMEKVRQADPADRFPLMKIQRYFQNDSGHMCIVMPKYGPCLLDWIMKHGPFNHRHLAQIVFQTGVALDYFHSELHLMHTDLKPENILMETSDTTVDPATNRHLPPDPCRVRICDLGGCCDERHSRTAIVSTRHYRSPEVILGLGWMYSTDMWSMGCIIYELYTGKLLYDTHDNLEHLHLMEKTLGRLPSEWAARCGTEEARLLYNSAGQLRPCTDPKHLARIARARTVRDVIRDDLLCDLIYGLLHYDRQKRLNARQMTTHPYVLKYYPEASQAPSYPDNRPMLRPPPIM
Assay: biochemical
Type: binding

[1] = DSF, 10 µM compound, 2 µM LmxCLK1, Run 1
[2] = DSF, 10 µM compound, 2 µM LmxCLK1, Run 2
[3] = DSF, 10 µM compound, 2 µM LmxCLK1, mean of two runs
[4] = DSF, 10 µM compound, 2 µM LmxCLK1, Run 1, read-out: ΔTm Run 1
[5] = DSF, 10 µM compound, 2 µM LmxCLK1, Run 2, read-out: ΔTm Run 2
[6] = DSF, 10 µM compound, 2 µM LmxCLK1, mean of two runs, read-out: ΔTm Average

SMILES	ΔTm Run 1 [1] [°C]	ΔTm Run 2 [2] [°C]	ΔTm Average [3] [°C]	ΔTm at 10 µM [4] [°C]	ΔTm at 10 µM [5] [°C]	ΔTm at 10 µM [6] [°C]	also measured
CN(C)CCSSCCNC(=O)C1CCN(C(=O)CSc2ccc(Cl)cc2)CC1 [6H05]	–	–	–	–	–	–	ΔTm Average: -0.1; ΔTm Run 1: 0.1 °C; ΔTm Run 2: -0.2
Cc1nc(NC(=O)N2CCC[C@H]2C(N)=O)sc1-c1csc(C(C)(C)C)n1 [A66]	–	–	–	–	–	–	ΔTm Average: 0 °C; ΔTm Run 1: 0.4 °C; ΔTm Run 2: -0.3
Cc1[nH]nc2ccc(-c3cncc(OC[C@@H](N)Cc4ccccc4)c3)cc12 [A-674563]	–	–	–	–	–	–	ΔTm Average: 0.7 °C; ΔTm Run 1: 0.8 °C; ΔTm Run 2: 0.6 °C
Cc1c(NC(=O)OC[C@@H]2COCCN2)cn2ncnc(Nc3ccc4c(cnn4Cc4cccc(F)c4)c3)c12 [AC480 (BMS-599626)]	0.4	0.2	0.3	–	–	–	–
CCN1CCN(Cc2ccc(-c3cc4c(N[C@H](C)c5ccccc5)ncnc4[nH]3)cc2)CC1 [AEE788 (NVP-AEE788)]	0.2	0.3	0.3	–	–	–	–
CC(C)(C)c1cc(C=C(C#N)C#N)cc(Br)c1O [AG-1024]	0.0	-0.2	-0.1	–	–	–	–
COc1cc2ncnc(Nc3cccc(Cl)c3)c2cc1OC [AG-1478 (Tyrphostin AG-1478)]	0.1	0.3	0.2	–	–	–	–
COc1ccc2c(Oc3ccc(NC(=O)c4c(C)n(CC(C)(C)O)n(-c5ccccc5)c4=O)nc3)ccnc2c1 [AMG-458]	0.9	1.0	1.0	–	–	–	–
COc1cc(N2CCC(N3CCN(C)CC3)CC2)ccc1Nc1ncc(Cl)c(Nc2ccccc2P(C)(C)=O)n1 [AP26113]	–	–	–	1.1	0.9	1	–
COc1ccc(CNC(=O)Nc2ncc([N+](=O)[O-])s2)cc1 [AR-A014418]	0.0	-0.1	-0.1	–	–	–	–
Clc1ccc(C2(c3ccc(-c4cn[nH]c4)cc3)CCNCC2)cc1 [AT7867]	1.2	0.7	0.9	–	–	–	–
O=C(Nc1c[nH]nc1-c1nc2ccc(CN3CCOCC3)cc2[nH]1)NC1CC1 [AT9283]	–	–	–	2.2	2.1	2.2	–
C=CC(=O)Nc1cccc(Nc2nc(Nc3ccc(OCCOC)cc3)ncc2F)c1 [AVL-292]	–	–	–	0	-0.2	-0.1	–
C[C@@H]1COCCN1c1cc(C2(S(C)(=O)=O)CC2)nc(-c2cccc3[nH]ccc23)n1 [AZ20]	–	–	–	–	–	–	ΔTm Average: -0.3; ΔTm Run 1: -0.2; ΔTm Run 2: -0.5
Cc1ccc(NC(=O)c2cccc(C(C)(C)C#N)c2)cc1Nc1ccc2ncn(C)c(=O)c2c1 [AZ 628]	0.4	0.2	0.3	–	–	–	–
Cc1cc(Nc2nc(N[C@@H](C)c3ccc(F)cc3)c(C#N)cc2F)[nH]n1 [AZ 960]	–	–	–	0.3	0.3	0.3	–
N#Cc1ccc2[nH]c(O)c(-c3ccc(CN4CCOCC4)cn3)c2c1 [AZD1080]	–	–	–	0.1	-0.2	-0.1	–
Cc1cc(Nc2nc(N[C@@H](C)c3ncc(F)cn3)ncc2Cl)n[nH]1 [AZD1480]	–	–	–	0.6	0.5	0.6	–
Cc1ncc(-c2ccnc(Nc3ccc(S(C)(=O)=O)cc3)n2)n1C(C)C [AZD5438]	–	–	–	1.2	0.8	1	–
Cc1cc([C@@H](C)Nc2ccccc2C(=O)O)c2nc(N3CCOCC3)cc(=O)n2c1 [AZD6482]	–	–	–	0.1	-0.1	0	–
NC(=O)Nc1cc(-c2cccc(F)c2)sc1C(=O)N[C@H]1CCCNC1 [AZD7762]	–	–	–	3.5	3.1	3.3	–
COc1ccc(-c2ccc3c(N4CCOC[C@@H]4C)nc(N4CCOC[C@@H]4C)nc3n2)cc1CO [AZD8055]	–	–	–	0.4	0.3	0.3	–
Cc1cc(C(=O)NOCCO)c(Nc2ccc(I)cc2F)n(C)c1=O [AZD8330]	–	–	–	0.5	0.2	0.3	–
CNC(=O)CN1CCC(Oc2cc3c(Nc4cccc(Cl)c4F)ncnc3cc2OC)CC1 [AZD8931 (Sapitinib)]	-0.1	-0.2	-0.1	–	–	–	–

SMILES	ΔTm Run 1 [1] [°C]	ΔTm Run 2 [2] [°C]	ΔTm Average [3] [°C]	ΔTm at 10 µM [4] [°C]	ΔTm at 10 µM [5] [°C]	ΔTm at 10 µM [6] [°C]	also measured
C=CC(=O)Nc1cc(Nc2nccc(-c3cn(C)c4ccccc34)n2)c(OC)cc1N(C)CCN(C)C [AZD9291]	–	–	–	0	-0.3	-0.2	–
NC(=O)c1ncn([C@@H]2O[C@H](CO)[C@@H](O)[C@H]2O)c1N [Acadesine]	–	–	–	-0.2	-0.2	-0.2	–
CN(C)C/C=C/C(=O)Nc1cc2c(Nc3ccc(F)c(Cl)c3)ncnc2cc1O[C@H]1CCOC1 [Afatinib (BIBW2992)]	–	–	–	0.1	-0.5	-0.2	–
COc1cc(Nc2ncc3c(n2)-c2ccc(Cl)cc2C(c2c(F)cccc2OC)=NC3)ccc1C(=O)O [Alisertib (MLN8237)]	–	–	–	0.1	-0.3	-0.1	–
S=C(NCc1ccc2c(c1)OCO2)N1CCN(c2ncnc3c2oc2ccccc23)CC1 [Amuvatinib (MP-470)]	0.1	0.0	0.1	–	–	–	–
CCN1CCN(C(=O)Cc2ccc(Nc3ncc(F)c(Nc4ccc(C(=O)Nc5ccccc5Cl)cc4)n3)cc2)CC1 [Aurora A Inhibitor I]	0.0	-0.1	-0.1	–	–	–	–
CNC(=O)c1ccccc1Sc1ccc2c(/C=C/c3ccccn3)n[nH]c2c1 [Axitinib]	–	–	–	0.6	0.4	0.5	–
COc1ccc(-c2ccc3ncc4c(c3c2)n(-c2ccc(N3CCNCC3)c(C(F)(F)F)c2)c(=O)n4C)cn1 [BGT226 (NVP-BGT226)]	0.9	0.7	0.8	–	–	–	–
CC(C)CCN1c2nc(Nc3cc(F)c(O)c(F)c3)ncc2N(C)C(=O)C1C (stereo not drawn) [BI-D1870]	0.4	0.0	0.2	–	–	–	–
Cc1ccc(-n2nc(C(C)(C)C)cc2NC(=O)Nc2ccc(OCCN3CCOCC3)c3ccccc23)cc1 [BIRB 796 (Doramapimod)]	0.5	0.4	0.4	–	–	–	–
CN(C)Cc1cccc(N/C(=C2\C(=O)Nc3cc(C(=O)N(C)C)ccc32)c2ccccc2)c1 [BIX 02189]	–	–	–	–	–	–	ΔTm Average: -0.3; ΔTm Run 1: -0.2; ΔTm Run 2: -0.4
Nc1cc(C(F)(F)F)c(-c2cc(N3CCOCC3)nc(N3CCOCC3)n2)cn1 [BKM120 (NVP-BKM120)]	0.1	0.2	0.1	–	–	–	–
CCCCOc1c(C(=O)c2c(F)cc(C)cc2F)c[nH]c2nncc1-2 [BMS-265246]	–	–	–	-0.1	-0.3	-0.2	–
Cc1cc(N2CCOCC2)cc2[nH]c(-c3c(NC[C@@H](O)c4cccc(Cl)c4)cc[nH]c3=O)nc12 [BMS-536924]	0.2	0.1	0.1	–	–	–	–
CCOc1ccn(-c2ccc(F)cc2)c(=O)c1C(=O)Nc1ccc(Oc2ccnc(N)c2Cl)c(F)c1 [BMS-777607]	–	–	–	0.5	-0.2	0.2	–
Nc1nccc(Oc2ccc(NC(=O)c3c[nH]cc(-c4ccc(F)cc4)c3=O)cc2F)c1Cl [BMS-794833]	–	–	–	-0.1	-0.4	-0.3	–
CC(C)c1cnn2c(NCc3ccccc3)cc(NCCCCCCN)nc12.Cl [BS-181 HCl]	-0.3	-0.2	-0.3	–	–	–	–
O=C(NCCCNc1nc(Nc2cccc(NC(=O)N3CCCC3)c2)ncc1I)c1cccs1 [BX-795]	–	–	–	-0.1	0.4	0.2	–
O=C(Nc1cccc(Nc2ncc(Br)c(NCCc3cnc[nH]3)n2)c1)N1CCCC1 [BX-912]	0.2	0.2	0.2	–	–	–	–
Cc1nc(NC(=O)N2CCC[C@H]2C(N)=O)sc1-c1ccnc(C(C)(C)C(F)(F)F)c1 [BYL719]	–	–	–	0.1	0.2	0.2	–
CCN(CCO)CCCOc1ccc2c(Nc3cc(CC(=O)Nc4cccc(F)c4)[nH]n3)ncnc2c1 [Barasertib (AZD1152-HQPA)]	0.4	-0.1	0.1	–	–	–	–
COC(=O)[C@]12CCC(C)(C)C[C@H]1[C@H]1C(=O)C=C3[C@@]4(C)C=C(C#N)C(=O)C(C)(C)[C@@H]4CC[C@@]3(C)[C@]1(C)CC2 [Bardoxolone Methyl]	–	–	–	0.6	0.5	0.5	–
Cc1cc2c(F)c(Oc3ncnn4cc(OC[C@@H](C)OC(=O)[C@H](C)N)c(C)c34)ccc2[nH]1 [Brivanib Alaninate (BMS-582664)]	0.3	0.1	0.2	–	–	–	–
NC1(Cc2ccc(Cl)cc2)CCN(c2ncnc3[nH]ccc23)CC1 [CCT128930]	0.8	0.6	0.7	–	–	–	–
